Experimental data as given in ChEMBL document CHEMBL3588828, “A Selective, Cell-Permeable Nonphosphorylated Bicyclic Peptidyl Inhibitor against Peptidyl-Prolyl Isomerase Pin1” (J Med Chem, 2015).
Calls of active or inactive are those of the source. The rule behind the calls is not given here.

How the values were obtained:
[1] = target: T1, Peptidyl-prolyl cis-trans isomerase NIMA-interacting 1 (Homo sapiens, UniProt Q13526, S16A/Y23A); assay: (§1) Inhibition of FITC-labeled peptide-1 binding to N-terminal MBP fused and Texas-red-labeled full-length human Pin1 S16A/Y23A mutant expressed in Escherichia coli assessed as increase in fluorescence anisotropy by spectrofluorimetry
[2] = tested on: Peptidyl-prolyl cis-trans isomerase NIMA-interacting 1 (Homo sapiens), Q13526 [S16A,Y23A]; assay: as §1
[3] = target: Peptidyl-prolyl cis-trans isomerase NIMA-interacting 1 (Homo sapiens) (UniProt Q13526); assay: Inhibition of Pin1 in human HeLa cells assessed as increase in PML protein levels at 0.2 uM incubated for 2 hrs by Western blotting method relative to untreated control; type: cell-based
[4] = target: Peptidyl-prolyl cis-trans isomerase NIMA-interacting 1 (Homo sapiens) (UniProt Q13526); assay: Inhibition of Pin1 in human HeLa cells assessed as increase in PML protein levels at 1 uM incubated for 2 hrs by Western blotting method relative to untreated control; type: cell-based
[5] = target: GTPase KRas (Homo sapiens) (UniProt P01116); assay: Binding affinity to K-Ras (unknown origin)
[6] = target: T1, Peptidyl-prolyl cis-trans isomerase NIMA-interacting 1; assay: (§2) Inhibition of N-terminal MBP fused and Texas-red-labeled full-length human Pin1 S16A/Y23A mutant expressed in Escherichia coli pre-incubated for 10 mins before addition of Suc-Ala-Glu-Pro-Phe-pNA substrate in presence of alpha-chymotrypsin by UV/Vis spectrophotometry
[7] = tested on: Peptidyl-prolyl cis-trans isomerase NIMA-interacting 1 (Homo sapiens), Q13526 [S16A,Y23A]; assay: as §2
[8] = target: T2, Peptidyl-prolyl cis-trans isomerase NIMA-interacting 4 (Homo sapiens, UniProt Q9Y237); assay: Inhibition of Pin4 (unknown origin) pre-incubated for 10 mins before addition of Suc-Ala-Glu-Pro-Phe-pNA substrate in presence of alpha-chymotrypsin by UV/Vis spectrophotometry
HeLa [9] = assay: Growth inhibition of human HeLa cells at 5 uM incubated for 3 days by MTT assay; type: functional; details: 72 h, read-out: GI
[10] = target: T3, Tyrosine-protein phosphatase non-receptor type 11 (Homo sapiens) (UniProt Q06124); assay: Binding affinity to SHP2 (unknown origin)
T3 sequence (whole entry): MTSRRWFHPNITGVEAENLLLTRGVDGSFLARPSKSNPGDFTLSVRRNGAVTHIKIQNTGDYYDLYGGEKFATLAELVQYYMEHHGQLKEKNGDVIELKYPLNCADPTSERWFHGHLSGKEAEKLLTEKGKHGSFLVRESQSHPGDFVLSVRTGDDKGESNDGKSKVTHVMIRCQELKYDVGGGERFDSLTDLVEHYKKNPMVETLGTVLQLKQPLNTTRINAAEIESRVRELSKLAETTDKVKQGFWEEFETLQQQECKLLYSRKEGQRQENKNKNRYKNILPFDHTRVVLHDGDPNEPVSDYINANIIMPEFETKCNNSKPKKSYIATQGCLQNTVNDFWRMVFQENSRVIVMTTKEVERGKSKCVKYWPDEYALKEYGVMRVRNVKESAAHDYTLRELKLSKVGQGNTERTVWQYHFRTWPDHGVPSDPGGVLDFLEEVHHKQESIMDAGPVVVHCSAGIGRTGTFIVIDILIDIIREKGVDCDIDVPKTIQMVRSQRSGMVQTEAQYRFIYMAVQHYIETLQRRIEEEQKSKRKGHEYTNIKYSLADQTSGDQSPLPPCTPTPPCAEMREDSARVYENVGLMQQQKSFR

[11] = target: T2, Peptidyl-prolyl cis-trans isomerase NIMA-interacting 4; assay: Inhibition of Pin4 (unknown origin) at 5 uM pre-incubated for 10 mins before addition of Suc-Ala-Glu-Pro-Phe-pNA substrate in presence of alpha-chymotrypsin by UV/Vis spectrophotometry
HeLa [12] = assay: Drug uptake in human HeLa cells assessed as mean fluorescence intensity at 5 uM using FITC-labeled compound incubated for 2 hrs by flow cytometry (reference value: 86); type: ADME, cell-based
Albumin = Albumin (Bos taurus, UniProt P02769); assay: Binding affinity to bovine serum albumin; type: ADME
FKBP1A = assay: Inhibition of FKBP12 (unknown origin) up to 5 uM pre-incubated for 10 mins before addition of Suc-Ala-Glu-Pro-Phe-pNA substrate in presence of alpha-chymotrypsin by UV/Vis spectrophotometry; details: Homo sapiens
HeLa [13] = assay: Antiproliferative activity against human HeLa cells assessed as reduction in cell growth incubated for 72 hrs by MTT assay; type: functional, cell-based; details: Homo sapiens, HeLa, 72 h; read-out: IC50
[14] = target: Tumor necrosis factor (Homo sapiens) (UniProt P01375); assay: Binding affinity to TNFalpha (unknown origin)
[15] = Stability in 25% human serum assessed as intact parent compound level at 5 uM after 6 hrs incubated at 37 degC by reversed-phase HPLC method; type: ADME, cell-free; details: read-out: Stability
[16] = target: T1, Peptidyl-prolyl cis-trans isomerase NIMA-interacting 1; assay: Binding affinity to N-terminal MBP fused and Texas-red-labeled full-length human Pin1 S16A/Y23A mutant expressed in Escherichia coli assessed as increase in fluorescence anisotropy by spectrofluorimetry; details: read-out: Kd
[17] = target: T4, Tyrosine-protein phosphatase non-receptor type 1 (Homo sapiens) (UniProt P18031); assay: Binding affinity to PTP1B (unknown origin)
T4 sequence (whole entry): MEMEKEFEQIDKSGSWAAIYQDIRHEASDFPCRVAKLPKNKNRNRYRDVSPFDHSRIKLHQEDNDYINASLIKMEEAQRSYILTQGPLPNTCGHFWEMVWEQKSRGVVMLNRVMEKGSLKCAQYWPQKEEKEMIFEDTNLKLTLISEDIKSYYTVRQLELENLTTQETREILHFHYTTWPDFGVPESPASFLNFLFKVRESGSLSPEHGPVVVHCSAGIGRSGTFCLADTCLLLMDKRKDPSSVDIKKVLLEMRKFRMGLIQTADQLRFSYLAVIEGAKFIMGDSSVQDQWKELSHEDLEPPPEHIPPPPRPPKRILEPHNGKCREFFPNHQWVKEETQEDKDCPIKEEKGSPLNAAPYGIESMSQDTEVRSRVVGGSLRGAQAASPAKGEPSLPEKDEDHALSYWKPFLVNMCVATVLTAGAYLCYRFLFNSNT

[18] = target: Tyrosine-protein phosphatase non-receptor type 6 (Homo sapiens) (UniProt P29350); assay: Binding affinity to SHP1 (unknown origin)
[19] = target: Growth factor receptor-bound protein 2 (Homo sapiens) (UniProt P62993); assay: Binding affinity to Grb2 SH2 domain (unknown origin)
[20] = target: Peptidyl-prolyl cis-trans isomerase A (Homo sapiens) (UniProt P62937); assay: Inhibition of cyclophilin A (unknown origin) up to 5 uM pre-incubated for 10 mins before addition of Suc-Ala-Glu-Pro-Phe-pNA substrate in presence of alpha-chymotrypsin by UV/Vis spectrophotometry
[21] = Stability in 25% human serum assessed as compound degradation at 5 uM after 3 hrs incubated at 37 degC by reversed-phase HPLC method; type: ADME, cell-free; details: read-out: Drug degradation
Serum [22] = assay: Drug metabolism in 25% human serum assessed as compound 2 formation at 5 uM incubated at 37 degC by MALDI-TOF mass spectrometry; type: ADME, cell-free
Serum [23] = assay: Drug level in 25% human serum treated with at 5 uM peptide-1 assessed as compound formation incubated at 37 degC by MALDI-TOF mass spectrometry; type: ADME, cell-free

T1 sequence (Q13526 whole entry S16A/Y23A, the tested form may be a part): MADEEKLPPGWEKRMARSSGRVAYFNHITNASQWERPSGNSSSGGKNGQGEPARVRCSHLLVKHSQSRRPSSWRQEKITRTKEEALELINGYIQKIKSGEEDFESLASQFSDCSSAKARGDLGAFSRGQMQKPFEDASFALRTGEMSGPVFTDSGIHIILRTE
Peptidyl-prolyl cis-trans isomerase NIMA-interacting 1 (Homo sapiens), Q13526 [S16A,Y23A], sequence (Q13526 whole entry S16A/Y23A): as the sequence (Q13526 whole entry S16A/Y23A, the tested form may be a part) above
T2 sequence (Q9Y237 whole entry): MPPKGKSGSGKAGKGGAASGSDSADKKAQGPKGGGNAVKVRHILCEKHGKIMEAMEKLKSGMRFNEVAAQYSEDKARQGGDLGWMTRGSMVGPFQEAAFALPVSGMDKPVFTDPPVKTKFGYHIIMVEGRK
Peptidyl-prolyl cis-trans isomerase NIMA-interacting 1 (Homo sapiens), sequence (Q13526 whole entry): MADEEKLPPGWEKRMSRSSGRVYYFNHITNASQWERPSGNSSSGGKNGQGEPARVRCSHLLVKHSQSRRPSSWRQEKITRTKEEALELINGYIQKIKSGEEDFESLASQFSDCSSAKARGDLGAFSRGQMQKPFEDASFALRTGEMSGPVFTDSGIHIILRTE
Tyrosine-protein phosphatase non-receptor type 6 (Homo sapiens), sequence (P29350 whole entry, the tested form may be a part): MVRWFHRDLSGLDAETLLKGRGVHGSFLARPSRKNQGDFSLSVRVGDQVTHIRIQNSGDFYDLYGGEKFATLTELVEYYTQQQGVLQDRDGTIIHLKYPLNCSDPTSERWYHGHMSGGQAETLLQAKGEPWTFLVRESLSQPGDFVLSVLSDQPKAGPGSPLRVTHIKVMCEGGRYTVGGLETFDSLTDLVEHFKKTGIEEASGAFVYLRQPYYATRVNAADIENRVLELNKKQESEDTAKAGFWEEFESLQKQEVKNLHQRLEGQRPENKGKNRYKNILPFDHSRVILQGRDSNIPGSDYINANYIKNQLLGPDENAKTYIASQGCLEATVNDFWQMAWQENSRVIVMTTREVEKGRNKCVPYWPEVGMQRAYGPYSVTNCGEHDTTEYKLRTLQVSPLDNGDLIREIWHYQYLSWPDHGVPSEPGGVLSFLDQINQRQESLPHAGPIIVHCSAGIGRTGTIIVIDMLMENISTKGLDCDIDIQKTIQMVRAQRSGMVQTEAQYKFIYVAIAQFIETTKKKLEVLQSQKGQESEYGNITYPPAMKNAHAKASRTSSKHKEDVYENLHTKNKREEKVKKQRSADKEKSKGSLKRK
Growth factor receptor-bound protein 2 (Homo sapiens), sequence (P62993 whole entry, looked up, the tested form may be a part): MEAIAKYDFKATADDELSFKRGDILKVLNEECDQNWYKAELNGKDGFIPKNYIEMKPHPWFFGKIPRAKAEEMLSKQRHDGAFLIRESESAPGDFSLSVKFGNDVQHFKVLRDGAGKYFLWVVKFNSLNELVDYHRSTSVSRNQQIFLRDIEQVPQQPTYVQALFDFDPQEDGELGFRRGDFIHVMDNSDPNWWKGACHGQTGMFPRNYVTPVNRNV
GTPase KRas (Homo sapiens), sequence (P01116 whole entry, looked up, the tested form may be a part): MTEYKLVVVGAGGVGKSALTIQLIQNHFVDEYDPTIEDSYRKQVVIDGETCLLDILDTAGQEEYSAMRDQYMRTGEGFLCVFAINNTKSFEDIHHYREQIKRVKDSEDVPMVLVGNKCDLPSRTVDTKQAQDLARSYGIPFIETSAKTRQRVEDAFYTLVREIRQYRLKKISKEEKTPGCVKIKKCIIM
Peptidyl-prolyl cis-trans isomerase A (Homo sapiens), sequence (P62937 whole entry, looked up): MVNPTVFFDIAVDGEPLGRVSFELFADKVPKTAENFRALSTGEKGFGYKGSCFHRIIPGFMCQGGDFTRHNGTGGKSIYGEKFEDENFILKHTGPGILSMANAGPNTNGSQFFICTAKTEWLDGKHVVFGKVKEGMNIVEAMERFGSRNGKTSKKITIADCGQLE
Albumin, sequence (P02769 whole entry): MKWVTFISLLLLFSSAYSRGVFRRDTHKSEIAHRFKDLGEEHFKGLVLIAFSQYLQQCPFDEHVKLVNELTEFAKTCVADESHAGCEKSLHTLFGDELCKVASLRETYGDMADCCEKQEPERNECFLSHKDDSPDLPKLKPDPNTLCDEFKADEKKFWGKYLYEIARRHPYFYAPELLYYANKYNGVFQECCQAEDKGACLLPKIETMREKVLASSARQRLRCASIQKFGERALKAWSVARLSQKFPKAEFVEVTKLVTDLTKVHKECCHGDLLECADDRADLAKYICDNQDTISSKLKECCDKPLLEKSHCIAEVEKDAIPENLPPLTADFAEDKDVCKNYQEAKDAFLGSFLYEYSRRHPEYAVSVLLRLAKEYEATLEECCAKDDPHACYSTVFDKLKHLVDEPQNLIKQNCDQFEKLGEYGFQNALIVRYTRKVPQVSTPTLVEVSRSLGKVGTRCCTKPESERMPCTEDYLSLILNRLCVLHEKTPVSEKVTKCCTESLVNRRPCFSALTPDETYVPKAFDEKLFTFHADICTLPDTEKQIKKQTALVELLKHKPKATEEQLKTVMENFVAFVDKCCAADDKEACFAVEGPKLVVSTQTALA
Tumor necrosis factor (Homo sapiens), sequence (P01375 whole entry): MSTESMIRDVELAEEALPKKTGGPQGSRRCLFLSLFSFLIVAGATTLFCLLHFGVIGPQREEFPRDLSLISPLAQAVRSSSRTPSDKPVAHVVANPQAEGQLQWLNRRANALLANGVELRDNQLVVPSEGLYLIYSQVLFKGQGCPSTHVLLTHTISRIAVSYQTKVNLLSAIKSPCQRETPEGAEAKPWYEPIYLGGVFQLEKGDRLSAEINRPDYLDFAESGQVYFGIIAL

With `C[C@@H]1NC(=O)[C@H](CCCNC(=N)N)NC(=O)[C@H](Cc2ccc3ccccc3c2)NC(=O)[C@H]2CCCCN2C(=O)[C@@H]([C@H](C)O)NC(=O)[C@H](Cc2ccc(F)cc2)NC(=O)[C@@H](Cc2ccc(F)cc2)NC(=O)c2cc3cc(c2)C(=O)NC[C@H](NC(=O)[C@@H](C)NC1=O)C(=O)N[C@@H](Cc1ccccc1)C(=O)N[C@@H](Cc1ccc2ccccc2c1)C(=O)N[C@@H](CCCNC(=N)N)C(=O)N[C@@H](CCCNC(=N)N)C(=O)N[C@@H](CCCNC(=N)N)C(=O)N[C@@H](CCCNC(=N)N)C(=O)N[C@H](C(=O)N[C@@H](CCCCN)C(=O)O)CNC3=O` the IC50 [1] was 190 nM, the inhibition [2] was “Dose-dependent effect” and the fold change (FC) [3] was 1.8. For the same molecule, the fold change (FC) [4] was 3.3, the Activity [5] was “inactive” and the IC50 [6] was 170 nM. The inhibition [7] was “Dose-dependent effect”, the IC50 [8] was 34000 nM and the inhibition of growth at 5 µM (HeLa [9]) was > 60%. The Activity [10] was “inactive”, the inhibition [11] was 15% and the Flu intensity (HeLa [12]) was 8320. For the same molecule, the Kd (Albumin) was 20000 nM, the inhibition (FKBP1A) was “inactive” and the IC50 (HeLa [13]) was 1000 nM. The Activity [14] was “inactive”, the remaining at 6 h, 5 µM [15] was 97% and the Kd [16] was 120 nM. The Activity [17] was “inactive”, the Activity [18] was “inactive” and the Activity [19] was “inactive”. For the same molecule, the inhibition [20] was “inactive”.
With `C[C@@H]1NC(=O)[C@H](CCCNC(=N)N)NC(=O)[C@H](Cc2ccc3ccccc3c2)NC(=O)[C@@H]2CCCCN2C(=O)[C@@H]([C@H](C)OP(=O)(O)O)NC(=O)CN(C)C(=O)[C@@H](C)NC(=O)c2cc3cc(c2)C(=O)NC[C@H](NC(=O)[C@@H](C)NC1=O)C(=O)N[C@@H](Cc1ccccc1)C(=O)N[C@@H](Cc1ccc2ccccc2c1)C(=O)N[C@@H](CCCNC(=N)N)C(=O)N[C@@H](CCCNC(=N)N)C(=O)N[C@@H](CCCNC(=N)N)C(=O)N[C@@H](CCCNC(=N)N)C(=O)N[C@H](C(=O)N[C@@H](CCCCN)C(=O)O)CNC3=O` the metabolised at 3 h, 5 µM [21] was 50%, the Flu intensity (HeLa [12]) was 2040 and the Drug metabolism (Serum [22]) was “metabolite_detected”. The IC50 (HeLa [13]) was 2500 nM and the Kd [16] was 72 nM.
With `C[C@@H]1NC(=O)[C@H](CCCNC(=N)N)NC(=O)[C@H](Cc2ccc3ccccc3c2)NC(=O)[C@@H]2CCCCN2C(=O)[C@@H]([C@H](C)O)NC(=O)CN(C)C(=O)[C@@H](C)NC(=O)c2cc3cc(c2)C(=O)NC[C@H](NC(=O)[C@@H](C)NC1=O)C(=O)N[C@@H](Cc1ccccc1)C(=O)N[C@@H](Cc1ccc2ccccc2c1)C(=O)N[C@@H](CCCNC(=N)N)C(=O)N[C@@H](CCCNC(=N)N)C(=O)N[C@@H](CCCNC(=N)N)C(=O)N[C@@H](CCCNC(=N)N)C(=O)N[C@H](C(=O)N[C@@H](CCCCN)C(=O)O)CNC3=O` the Drug metabolism (Serum [23]) was “metabolite_detected” and the Kd [16] was 620 nM.
